Test results: ChEMBL document CHEMBL3407472, “Multi-parameter optimization of aza-follow-ups to BI 207524, a thumb pocket 1 HCV NS5B polymerase inhibitor. Part 2: Impact of lipophilicity on promiscuity and in vivo toxicity” (Bioorg Med Chem Lett, 2015)
Values belong to the compound of their own block, whether it stands above or below them.

Assays:
[1] = test system: Hepatitis C virus; test: Antiviral activity against Hepatitis C virus genotype 1b infected in human Huh cells assessed as inhibition of viral replication by RT-PCR-based replicon assay; type: functional, cell-based, Hepacivirus hominis
[2] = test system: Hepatitis C virus; test: Antiviral activity against Hepatitis C virus genotype 1a infected in human Huh cells assessed as inhibition of viral replication by RT-PCR-based replicon assay; type: functional, cell-based, Hepacivirus hominis; details: subtype 1a
[3] = Half life in human liver microsomes at 2 uM; type: ADME
[4] = Permeability from apical to basolateral side of human Caco2 cells; type: ADME, cell-based; details: Caco-2, read-out: permeability
[5] = Lipophilicity, log D of the compound at pH 7.4; type: physicochemical; details: buffer
[6] = Clearance in dog at 5 mg/kg, po and 2 mg/kg, iv; type: ADME, organism-based, Canis lupus familiaris; details: in vivo
[7] = AUC in rat at 5 mg/kg, po and 2 mg/kg, iv; type: ADME, organism-based; details: plasma
[8] = molecular target: Voltage-gated inwardly rectifying potassium channel KCNH2 (Homo sapiens, UniProt Q12809); test: Inhibition of human ERG channel
[9] = Clearance in rat at 5 mg/kg, po and 2 mg/kg, iv; type: ADME, organism-based; details: in vivo
[10] = AUC in cynomolgous monkey at 5 mg/kg, po and 2 mg/kg, iv; type: ADME, organism-based, Macaca fascicularis; details: cynomolgus monkey, plasma
[11] = Volume of distribution at steady state in rat at 5 mg/kg, po and 2 mg/kg, iv; type: ADME, organism-based; details: in vivo, read-out: Vdss
[12] = Volume of distribution at steady state in cynomolgous monkey at 5 mg/kg, po and 2 mg/kg, iv; type: ADME, organism-based, Macaca fascicularis; details: cynomolgus monkey, in vivo, read-out: Vdss
[13] = Half life in dog at 5 mg/kg, po and 2 mg/kg, iv; type: ADME, organism-based, Canis lupus familiaris; details: in vivo
[14] = Half life in cynomolgous monkey liver microsomes at 2 uM; type: ADME, Macaca fascicularis; details: cynomolgus monkey
[15] = Cmax in cynomolgous monkey at 5 mg/kg, po and 2 mg/kg, iv; type: ADME, organism-based, Macaca fascicularis; details: cynomolgus monkey, in vivo
[16] = Half life in rat at 5 mg/kg, po and 2 mg/kg, iv; type: ADME, organism-based; details: in vivo
[17] = Half life in dog liver microsomes at 2 uM; type: ADME, Canis lupus familiaris
[18] = AUC in dog at 5 mg/kg, po and 2 mg/kg, iv; type: ADME, organism-based, Canis lupus familiaris; details: plasma
[19] = Bioavailability in dog at 5 mg/kg, po and 2 mg/kg, iv; type: ADME, organism-based, Canis lupus familiaris; details: in vivo
[20] = Bioavailability in cynomolgous monkey at 5 mg/kg, po and 2 mg/kg, iv; type: ADME, organism-based, Macaca fascicularis; details: cynomolgus monkey, in vivo
[21] = Half life in cynomolgous monkey at 5 mg/kg, po and 2 mg/kg, iv; type: ADME, organism-based, Macaca fascicularis; details: cynomolgus monkey, in vivo
[22] = Clearance in cynomolgous monkey at 5 mg/kg, po and 2 mg/kg, iv; type: ADME, organism-based, Macaca fascicularis; details: cynomolgus monkey, in vivo
[23] = Volume of distribution at steady state in dog at 5 mg/kg, po and 2 mg/kg, iv; type: ADME, organism-based, Canis lupus familiaris; details: in vivo, read-out: Vdss
[24] = Cmax in dog at 5 mg/kg, po and 2 mg/kg, iv; type: ADME, organism-based, Canis lupus familiaris; details: in vivo
[25] = Ratio of drug uptake in liver to plasma of rat at 5 mg/kg, po and 2 mg/kg, iv after 6 to 8 hrs; type: ADME, organism-based
[26] = Cmax in rat at 5 mg/kg, po and 2 mg/kg, iv; type: ADME, organism-based; details: in vivo
[27] = Half life in rat liver microsomes at 2 uM; type: ADME
[28] = Bioavailability in rat at 5 mg/kg, po and 2 mg/kg, iv; type: ADME, organism-based; details: in vivo
[29] = Lipophilicity, log D of the compound; type: physicochemical; details: octanol/water
[30] = Plasma concentration in rat at 2 mg/kg, po each in 0.5% Methylcellulose and 0.3% Tween-80 and 1% N-methylpyrrolidone after 2 hrs; type: ADME, organism-based; design: dose 2 mg/kg, route oral
[31] = Plasma concentration in rat at 2 mg/kg, po each in 0.5% Methylcellulose and 0.3% Tween-80 and 1% N-methylpyrrolidone after 1 hr; type: ADME, organism-based; design: dose 2 mg/kg, route oral
[32] = molecular target: 5-hydroxytryptamine receptor 2A (Homo sapiens, UniProt P28223); test: Inhibition of serotonin 5-HT2A receptor (unknown origin)
[33] = Cmax in rat at 2 mg/kg, po each in 0.5% Methylcellulose and 0.3% Tween-80 and 1% N-methylpyrrolidone; type: ADME, organism-based; design: dose 2 mg/kg, route oral; details: in vivo

5-hydroxytryptamine receptor 2A, sequence (P28223 whole entry): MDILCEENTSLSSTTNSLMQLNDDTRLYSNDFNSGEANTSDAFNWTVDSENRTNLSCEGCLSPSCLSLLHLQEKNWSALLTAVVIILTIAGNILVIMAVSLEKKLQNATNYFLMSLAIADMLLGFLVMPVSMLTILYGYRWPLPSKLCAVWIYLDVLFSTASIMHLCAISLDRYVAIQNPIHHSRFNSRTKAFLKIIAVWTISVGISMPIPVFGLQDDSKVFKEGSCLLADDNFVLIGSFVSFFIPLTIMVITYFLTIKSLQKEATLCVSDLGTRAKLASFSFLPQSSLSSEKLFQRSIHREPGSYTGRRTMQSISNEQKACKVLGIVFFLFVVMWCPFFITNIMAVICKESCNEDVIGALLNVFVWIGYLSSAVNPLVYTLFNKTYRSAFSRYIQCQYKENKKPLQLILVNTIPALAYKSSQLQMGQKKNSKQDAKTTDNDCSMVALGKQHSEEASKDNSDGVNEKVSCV
Voltage-gated inwardly rectifying potassium channel KCNH2, sequence (Q12809 whole entry): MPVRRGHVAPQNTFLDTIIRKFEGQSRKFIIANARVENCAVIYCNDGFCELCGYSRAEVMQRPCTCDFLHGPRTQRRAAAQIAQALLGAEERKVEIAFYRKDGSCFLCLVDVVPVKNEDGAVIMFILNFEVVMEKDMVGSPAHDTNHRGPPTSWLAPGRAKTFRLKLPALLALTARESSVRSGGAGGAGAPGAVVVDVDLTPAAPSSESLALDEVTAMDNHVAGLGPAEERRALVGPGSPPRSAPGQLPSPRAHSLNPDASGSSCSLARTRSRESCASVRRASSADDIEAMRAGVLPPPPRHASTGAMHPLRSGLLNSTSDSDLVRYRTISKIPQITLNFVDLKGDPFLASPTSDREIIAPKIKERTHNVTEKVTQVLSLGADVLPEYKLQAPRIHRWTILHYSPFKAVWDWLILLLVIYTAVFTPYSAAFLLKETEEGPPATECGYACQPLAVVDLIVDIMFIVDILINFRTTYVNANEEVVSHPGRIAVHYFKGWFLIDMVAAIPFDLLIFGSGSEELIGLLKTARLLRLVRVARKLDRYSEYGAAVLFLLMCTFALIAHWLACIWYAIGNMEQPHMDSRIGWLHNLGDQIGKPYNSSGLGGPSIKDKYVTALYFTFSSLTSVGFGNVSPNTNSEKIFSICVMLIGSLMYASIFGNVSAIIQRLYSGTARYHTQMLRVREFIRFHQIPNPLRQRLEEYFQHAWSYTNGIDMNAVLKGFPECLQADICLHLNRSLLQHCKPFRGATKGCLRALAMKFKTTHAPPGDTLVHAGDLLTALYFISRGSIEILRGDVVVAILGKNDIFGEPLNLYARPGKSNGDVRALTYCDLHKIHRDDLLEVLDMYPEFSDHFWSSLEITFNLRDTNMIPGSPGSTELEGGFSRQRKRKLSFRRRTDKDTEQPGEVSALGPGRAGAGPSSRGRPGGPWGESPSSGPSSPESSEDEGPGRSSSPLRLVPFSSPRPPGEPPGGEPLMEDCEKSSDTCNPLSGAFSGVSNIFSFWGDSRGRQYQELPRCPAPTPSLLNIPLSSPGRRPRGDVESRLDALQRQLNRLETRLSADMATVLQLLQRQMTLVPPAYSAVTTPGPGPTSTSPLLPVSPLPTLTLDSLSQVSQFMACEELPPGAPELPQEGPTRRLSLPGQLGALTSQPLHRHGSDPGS

SMILES: CCOc1nc(NC(=O)C2(NC(=O)c3ccc4c(C5CCCC5)c(-c5ccccn5)n(C)c4c3)CCC2)ccc1/C=C/C(=O)O
EC50 [1]: 11 nM
half-life at 2 µM [3]: 0.667 h
Papp A→B [4]: 21 ×10⁻⁶ cm/s
logD [5]: 4.4

SMILES: CCOc1nc(NC(=O)C2(NC(=O)c3ccc4c(C5CCCC5)c(-c5ccccn5)n(C)c4c3)CCC2)cnc1/C=C/C(=O)O
logD [29]: 3.1
concentration at 2 h [30]: 200 nM
EC50 [1]: 13 nM
half-life at 2 µM [3]: 1.78 h
concentration at 1 h [31]: 500 nM
logD [5]: 3.1
half-life at 2 µM [27]: 0.617 h

SMILES: CCOc1nc(NC(=O)C(C)(C)NC(=O)c2ccc3c(C4CCCC4)c(-c4cncnc4)n(C)c3c2)ccc1/C=C/C(=O)O
logD [29]: 3
concentration at 2 h [30]: 100 nM
EC50 [1]: 12 nM
half-life at 2 µM [3]: 1.15 h
concentration at 1 h [31]: 200 nM
logD [5]: 3
half-life at 2 µM [27]: 1.27 h

SMILES: CCOc1nc(NC(=O)C(C)(C)NC(=O)c2ccc3c(C4CCCC4)c(-c4ncc(Cl)cn4)n(C)c3c2)cnc1/C=C/C(=O)O
logD [29]: 3.3
EC50 [1]: 12 nM
EC50 [2]: 21 nM
half-life at 2 µM [3]: 2.3 h
IC50 [32]: 5200 nM
logD [5]: 3.3
half-life at 2 µM [27]: 1.82 h
Cmax [33]: 900 nM

SMILES: CCOc1nc(NC(=O)C(C)(C)NC(=O)c2ccc3c(C4CCCC4)c(-c4ccc(Cl)cn4)n(C)c3c2)cnc1/C=C/C(=O)O
logD [29]: 2.6
concentration at 2 h [30]: 660 nM
EC50 [1]: 6 nM
half-life at 2 µM [3]: 4.6 h
logD [5]: 2.6
half-life at 2 µM [27]: > 5 h
Cmax [33]: 660 nM

SMILES: CCOc1nc(NC(=O)C(C)(C)NC(=O)c2ccc3c(c2)c(C)c(-c2ccc(F)cn2)n3C2CCCCC2)cnc1/C=C/C(=O)O
concentration at 2 h [30]: 100 nM
EC50 [1]: 12 nM
half-life at 2 µM [3]: 1.57 h
concentration at 1 h [31]: 300 nM
half-life at 2 µM [27]: 1.28 h

SMILES: CCOc1nc(NC(=O)C2(NC(=O)c3ccc4c(C5CCCC5)c(-c5cnccn5)n(C)c4c3)CCCC2)cnc1/C=C/C(=O)O
logD [29]: 3.2
concentration at 2 h [30]: 100 nM
EC50 [1]: 5 nM
EC50 [2]: 13 nM
half-life at 2 µM [3]: 1.33 h
concentration at 1 h [31]: 400 nM
logD [5]: 3.2
half-life at 2 µM [27]: > 5 h

SMILES: COc1nc(NC(=O)C2(NC(=O)c3ccc4c(C5CCCC5)c(-c5ccccn5)n(C)c4c3)CCC2)ccc1/C=C/C(=O)O
logD [29]: 3.5
EC50 [1]: 15 nM
half-life at 2 µM [3]: 1.27 h
logD [5]: 3.5
half-life at 2 µM [27]: 0.167 h

Second part, led by results:

EC50 [1]: 13 nM
EC50 [2]: 24 nM
half-life at 2 µM [3]: 1.1 h
Papp A→B [4]: 15 ×10⁻⁶ cm/s
logD [5]: > 5.9
SMILES: CCOc1nc(NC(=O)C2(NC(=O)c3ccc4c(C5CCCC5)c(-c5ncc(Cl)cn5)n(C)c4c3)CCC2)ccc1/C=C/C(=O)O

clearance [6]: 1.9 mL/min/kg
AUC [7]: 11 µM·h
clearance [9]: 4.9 mL/min/kg
AUC [10]: 12 µM·h
Vd [11]: 0.44 L/kg
Vd [12]: 0.47 L/kg
EC50 [1]: 10 nM
half-life [13]: 5.1 h
EC50 [2]: 24 nM
half-life at 2 µM [14]: 0.433 h
Cmax [15]: 3800 nM
half-life at 2 µM [3]: 1.37 h
half-life [16]: 2.1 h
half-life at 2 µM [17]: 2.52 h
AUC [18]: 48 µM·h
Papp A→B [4]: 14 ×10⁻⁶ cm/s
bioavailability [19]: 61%
bioavailability [20]: 44%
half-life [21]: 2.3 h
clearance [22]: 4.6 mL/min/kg
Vd [23]: 0.36 L/kg
Cmax [24]: 8600 nM
logD [5]: > 4.7
Kp [25]: 6
Cmax [26]: 5000 nM
half-life at 2 µM [27]: 0.95 h
bioavailability [28]: 44%
SMILES: CCOc1nc(NC(=O)C2(NC(=O)c3ccc4c(C5CCCC5)c(-c5ccc(F)cn5)n(C)c4c3)CCC2)ccc1/C=C/C(=O)O
IC50 [8]: 2100 nM

EC50 [1]: 13 nM
EC50 [2]: 40 nM
half-life at 2 µM [3]: 2.78 h
Papp A→B [4]: 15 ×10⁻⁶ cm/s
SMILES: CCOc1nc(NC(=O)C2(NC(=O)c3ccc4c(C5CCCC5)c(-c5ccc(Cl)cn5)n(C)c4c3)CCC2)ccc1/C=C/C(=O)O

EC50 [1]: 8 nM
half-life at 2 µM [3]: 0.55 h
Papp A→B [4]: 13 ×10⁻⁶ cm/s
logD [5]: 3.6
SMILES: CCOc1nc(NC(=O)C2(NC(=O)c3ccc4c(C5CCCC5)c(-c5cnccn5)n(C)c4c3)CCC2)ccc1/C=C/C(=O)O

EC50 [1]: 15 nM
half-life at 2 µM [3]: 1.02 h
Papp A→B [4]: 17 ×10⁻⁶ cm/s
logD [5]: 3.4
SMILES: CCOc1nc(NC(=O)C2(NC(=O)c3ccc4c(C5CCCC5)c(-c5cncnc5)n(C)c4c3)CCC2)ccc1/C=C/C(=O)O
